# Columns and labels:
# [1] = system: subjects with a caffeine habit; assay: fMRI connectivity and brain blood flow analysis after test beverage; format: in vivo, human; conditions: subject that routinely ingests caffeine; brain regions consistent with caffeine cravings; FIG. 1 and FIG. 3
# Excerpt: Measurement or detection of changes in the brain can be done using functional MRI (fMRI) and functional brain network analyses as known in the art. The following is an exemplary study using known techniques based upon fMRI scanning of human brains.
# These examples represent an intervention study (number of subjects=24) with a randomized controlled, double-blind, placebo-controlled crossover design. The study is designed to ensure completion of all possibilities in the order of delivering the test samples, i.e. each subject is administered each of the possible test beverages in different order. […] For initial baseline testing, subjects undergo 16 hours of caffeine and chocolate withdrawal for a baseline testing and then participate in four separate brain scanning visits over 5-10 weeks. Study participants are ideally healthy adults 18-55 who consume moderate (200-500 mg) amounts of caffeine daily. […] As determined from a medical screening session, any subjects with active neurological dysfunction (such as a major Axis I psychopathology, Alzheimer's disease, Parkinson's disease, prior history of stroke, epilepsy, or serious CNS trauma, ADHD, migraines, hypertension, diabetes, peripheral vascular disease, or taking vasoactive medications, such as antihypertensive medications) are excluded from the study. […]
# brain blood flow = conditions: study using 6 participants; cited from earlier work
structure (smiles),measurement,setting,value
"Cn1c(=O)c2c(ncn2C)n(C)c1=O [Caffeine, caffeine]",change in blood flow/connectivity by fMRI,[1],reduction in blood flow/connectivity
same,brain blood flow difference between caffeine and theobromine,brain blood flow,5.03 ml/100 gm tissue/min
